pEC50: −log10 of the molar value.

This assay concerns the target Dual specificity tyrosine-phosphorylation-regulated kinase 1A (Homo sapiens, UniProt Q13627). Briefly: Kinase Assay: The DYRK1A kinase assay was run using the Ser/Thr 18 peptide Z-lyte assay kit according to manufacturer's instructions (Life Technologies—a Division of Thermo-Fisher). This is a non-radioactive assay using fluorescence resonance energy transfer (FRET) between coumarin and fluorescein to detect kinase activity which is represented as a ratio of coumarin emission/fluorescein emission.Briefly, recombinant DYRK1A kinase, ATP and Ser/Thr peptide 18 were prepared in 1× Kinase buffer to final concentrations of 0.19 μg/mL, 30 μM, and 4 μM respectively. The mixture was allowed to incubate with the representative compounds for one hour at room temperature. All reactions were performed in duplicate. Unphosphorylated (“0% Control”) and phosphorylated (“100% control”) forms of Ser/Thr 18 served as control reactions. Additionally, an 11-point dose-response curve of Staurosporine (1 uM top) was run to serve as a positive compound control.
By pEC50 is commonly meant the EC50 on a negative log10 scale, so that one unit is a factor of ten. For `O=C1CCc2cccc(c2)-c2cncc3[nH]c(nc23)-c2n[nH]c3ccc(cc23)-c2cncc(c2)N1`, the pEC50 was 8.00. In the case of `O=C1CCc2cccc(c2)-c2cncc(c2)NC(=O)c2n[nH]c3ccc(cc23)-c2cncc(c2)CN1` it was 8.05.

With `c1cc2cc(c1)-c1cncc3[nH]c(nc13)-c1n[nH]c3ccc(cc13)-c1cncc(c1)CNC2`, the negative logarithm of the EC50 (pEC50) was 8.52. Turning to `O=C1COc2cccc(c2)-c2cncc3[nH]c(nc23)-c2n[nH]c3ccc(cc23)-c2cncc(c2)N1`, the pEC50 is 8.30.

Take `CN1CCCCN(C)c2nccc3[nH]c(nc23)-c2n[nH]c3ccc(cc23)-c2cncc(c2)C1`: the pEC50 is 8.70.
